According to ChEMBL document CHEMBL3868618, “Synthesis and biological evaluation of chalcone derivatives containing aminoguanidine or acylhydrazone moieties” (Bioorg Med Chem Lett, 2016):
Values after ≈ are worked out from the molar mass of the structure shown.

How the values were obtained:
Staphylococcus aureus [1] = test: Antibacterial activity against Staphylococcus aureus 503 measured after 24 hrs by two-fold serial dilution method; assay type: functional; settings: Staphylococcus aureus, 503, 24 h
Staphylococcus aureus [2] = test: Antibacterial activity against quinolone-resistant Staphylococcus aureus 3519 measured after 24 hrs by two-fold serial dilution method; assay type: functional; settings: Staphylococcus aureus, 3519, 24 h
Candida albicans = test: Antifungal activity against Candida albicans 7535 measured after 24 hrs by two-fold serial dilution method; assay type: functional; settings: Candida albicans, 7535, 24 h
Staphylococcus aureus [3] = test: Antibacterial activity against quinolone-resistant Staphylococcus aureus 3505 measured after 24 hrs by two-fold serial dilution method; assay type: functional; settings: Staphylococcus aureus, 3505, 24 h
Staphylococcus aureus [4] = test: Antibacterial activity against methicillin-resistant Staphylococcus aureus 3506 measured after 24 hrs by two-fold serial dilution method; assay type: functional; settings: Staphylococcus aureus, 3506, 24 h
Mus musculus = test: Antiinflammatory activity in mouse assessed as inhibition of xylene-induced ear edema at 100 mg/kg, ip administered 30 mins before xylene challenge measured after 30 mins relative to DMSO-control; assay type: functional
Staphylococcus aureus [5] = test: Antibacterial activity against Staphylococcus aureus 209 measured after 24 hrs by two-fold serial dilution method; assay type: functional; settings: Staphylococcus aureus, 209, 24 h
Staphylococcus aureus [6] = test: Antibacterial activity against Staphylococcus aureus 4220 measured after 24 hrs by two-fold serial dilution method; assay type: functional; settings: Staphylococcus aureus, 4220, 24 h
Streptococcus mutans = test: Antibacterial activity against Streptococcus mutans 3065 measured after 24 hrs by two-fold serial dilution method; assay type: functional; settings: Streptococcus mutans, 3065, 24 h
Escherichia coli [7] = test: Antibacterial activity against Escherichia coli 1356 measured after 24 hrs by two-fold serial dilution method; assay type: functional; settings: Escherichia coli, 1356, 24 h
Salmonella typhimurium = test: Antibacterial activity against Salmonella typhimurium 1926 measured after 24 hrs by two-fold serial dilution method; assay type: functional, Salmonella enterica subsp. enterica serovar Typhimurium; settings: Salmonella enterica, 1926, 24 h
Pseudomonas aeruginosa = test: Antibacterial activity against Pseudomonas aeruginosa 2742 measured after 24 hrs by two-fold serial dilution method; assay type: functional; settings: Pseudomonas aeruginosa, 2742, 24 h
Staphylococcus aureus [8] = test: Antibacterial activity against methicillin-resistant Staphylococcus aureus 3167 measured after 24 hrs by two-fold serial dilution method; assay type: functional; settings: Staphylococcus aureus, 3167, 24 h
Escherichia coli [9] = test: Antibacterial activity against Escherichia coli 1924 measured after 24 hrs by two-fold serial dilution method; assay type: functional; settings: Escherichia coli, 1924, 24 h

SMILES	MIC (Staphylococcus aureus [1]) [µg/mL]	MIC (Staphylococcus aureus [2]) [µg/mL]	MIC (Candida albicans) [µg/mL]	MIC (Staphylococcus aureus [3]) [µg/mL]	MIC (Staphylococcus aureus [4]) [µg/mL]	inhibition in vivo at 100 mg/kg (Mus musculus) [%]	MIC (Staphylococcus aureus [5]) [µg/mL]	MIC (Staphylococcus aureus [6]) [µg/mL]	MIC (Streptococcus mutans) [µg/mL]	MIC (Escherichia coli [7]) [µg/mL]	MIC (Salmonella typhimurium) [µg/mL]	MIC (Pseudomonas aeruginosa) [µg/mL]	MIC (Staphylococcus aureus [8]) [µg/mL]	MIC (Escherichia coli [9]) [µg/mL]
COc1ccc(C(=O)/C=C/c2ccc(/C=N/NC(=N)N)cc2)cc1	16 (≈ 49.6 µM)	16 (≈ 49.6 µM)	8 (≈ 24.8 µM)	16 (≈ 49.6 µM)	8 (≈ 24.8 µM)	57.2	16 (≈ 49.6 µM)	16 (≈ 49.6 µM)	8 (≈ 24.8 µM)	32 (≈ 99.3 µM)	2 (≈ 6.2 µM)	8 (≈ 24.8 µM)	16 (≈ 49.6 µM)	16 (≈ 49.6 µM)
O=C(/C=C/c1ccc(/C=N/NC(=O)c2ccncc2)cc1)c1ccc(Br)cc1	> 64	64 (≈ 147 µM)	> 64	> 64	64 (≈ 147 µM)	55.7	> 64	> 64	> 64	> 64	> 64	> 64	> 64	> 64
N=C(N)N/N=C/c1ccc(/C=C/C(=O)c2ccc(Cl)cc2)cc1	4 (≈ 12.2 µM)	8 (≈ 24.5 µM)	4 (≈ 12.2 µM)	4 (≈ 12.2 µM)	2 (≈ 6.12 µM)	56.4	4 (≈ 12.2 µM)	2 (≈ 6.12 µM)	4 (≈ 12.2 µM)	8 (≈ 24.5 µM)	4 (≈ 12.2 µM)	2 (≈ 6.12 µM)	4 (≈ 12.2 µM)	2 (≈ 6.12 µM)
Cc1ccc(C(=O)/C=C/c2ccc(/C=N/NC(=O)c3ccncc3)cc2)c(C)c1	> 64	> 64	> 64	> 64	64 (≈ 167 µM)	58.5	> 64	> 64	> 64	> 64	> 64	> 64	64 (≈ 167 µM)	> 64
N=C(N)N/N=C/c1ccc(/C=C/C(=O)c2ccc(Br)cc2)cc1	4 (≈ 10.8 µM)	16 (≈ 43.1 µM)	2 (≈ 5.39 µM)	4 (≈ 10.8 µM)	2 (≈ 5.39 µM)	68.9	4 (≈ 10.8 µM)	2 (≈ 5.39 µM)	4 (≈ 10.8 µM)	32 (≈ 86.2 µM)	2 (≈ 5.39 µM)	2 (≈ 5.39 µM)	8 (≈ 21.5 µM)	2 (≈ 5.39 µM)
O=C(N/N=C/c1ccc(/C=C/C(=O)c2ccccc2Cl)cc1)c1ccccc1	64 (≈ 165 µM)	64 (≈ 165 µM)	> 64	64 (≈ 165 µM)	64 (≈ 165 µM)		64 (≈ 165 µM)	> 64	> 64	> 64	> 64	> 64	64 (≈ 165 µM)	> 64
Cc1ccc(C(=O)/C=C/c2ccc(/C=N/NC(=N)N)cc2)c(C)c1	8 (≈ 25 µM)	8 (≈ 25 µM)	8 (≈ 25 µM)	8 (≈ 25 µM)	4 (≈ 12.5 µM)	64.2	8 (≈ 25 µM)	4 (≈ 12.5 µM)	8 (≈ 25 µM)	8 (≈ 25 µM)	8 (≈ 25 µM)	4 (≈ 12.5 µM)	8 (≈ 25 µM)	8 (≈ 25 µM)
Cc1ccc(C(=O)/C=C/c2ccc(/C=N/NC(=O)c3ccccc3)cc2)c(C)c1	> 64	> 64	> 64	> 64	> 64	0.18	> 64	> 64	> 64	> 64	> 64	> 64	> 64	> 64
O=C(N/N=C/c1ccc(/C=C/C(=O)c2ccc(Cl)cc2Cl)cc1)c1ccncc1	16 (≈ 37.7 µM)	16 (≈ 37.7 µM)	4 (≈ 9.43 µM)	16 (≈ 37.7 µM)	16 (≈ 37.7 µM)	83.8	16 (≈ 37.7 µM)	8 (≈ 18.9 µM)	32 (≈ 75.4 µM)	32 (≈ 75.4 µM)	> 64	> 64	16 (≈ 37.7 µM)	32 (≈ 75.4 µM)
N=C(N)N/N=C/c1ccc(/C=C/C(=O)c2ccccc2F)cc1	8 (≈ 25.8 µM)	8 (≈ 25.8 µM)	8 (≈ 25.8 µM)	8 (≈ 25.8 µM)	4 (≈ 12.9 µM)	91.7	8 (≈ 25.8 µM)	4 (≈ 12.9 µM)	8 (≈ 25.8 µM)	16 (≈ 51.6 µM)	4 (≈ 12.9 µM)	4 (≈ 12.9 µM)	8 (≈ 25.8 µM)	8 (≈ 25.8 µM)
O=C(N/N=C/c1ccc(/C=C/C(=O)c2ccccc2F)cc1)c1ccccc1	> 64	> 64	> 64	> 64	64 (≈ 172 µM)		> 64	> 64	> 64	> 64	> 64	> 64	64 (≈ 172 µM)	> 64
O=C(/C=C/c1ccc(/C=N/NC(=O)c2cccc(Cl)c2)cc1)c1ccc(Cl)cc1	32 (≈ 75.6 µM)	32 (≈ 75.6 µM)	> 64	32 (≈ 75.6 µM)	32 (≈ 75.6 µM)		32 (≈ 75.6 µM)	32 (≈ 75.6 µM)	> 64	32 (≈ 75.6 µM)	> 64	> 64	32 (≈ 75.6 µM)	32 (≈ 75.6 µM)
N=C(N)N/N=C/c1ccc(/C=C/C(=O)c2ccccc2Br)cc1	8 (≈ 21.5 µM)	16 (≈ 43.1 µM)	8 (≈ 21.5 µM)	8 (≈ 21.5 µM)	8 (≈ 21.5 µM)	78.3	8 (≈ 21.5 µM)	4 (≈ 10.8 µM)	8 (≈ 21.5 µM)	16 (≈ 43.1 µM)	4 (≈ 10.8 µM)	8 (≈ 21.5 µM)	8 (≈ 21.5 µM)	8 (≈ 21.5 µM)
O=C(N/N=C/c1ccc(/C=C/C(=O)c2ccccc2Br)cc1)c1ccccc1	> 64	> 64	> 64	> 64	> 64		> 64	> 64	> 64	> 64	> 64	> 64	> 64	> 64
N=C(N)N/N=C/c1ccc(/C=C/C(=O)c2cccc(Cl)c2)cc1	4 (≈ 12.2 µM)	8 (≈ 24.5 µM)	4 (≈ 12.2 µM)	4 (≈ 12.2 µM)	2 (≈ 6.12 µM)	80.7	4 (≈ 12.2 µM)	4 (≈ 12.2 µM)	4 (≈ 12.2 µM)	8 (≈ 24.5 µM)	2 (≈ 6.12 µM)	4 (≈ 12.2 µM)	4 (≈ 12.2 µM)	4 (≈ 12.2 µM)
N=C(N)N/N=C/c1ccc(/C=C/C(=O)c2ccccc2Cl)cc1	8 (≈ 24.5 µM)	16 (≈ 49 µM)	8 (≈ 24.5 µM)	8 (≈ 24.5 µM)	8 (≈ 24.5 µM)	84.1	8 (≈ 24.5 µM)	8 (≈ 24.5 µM)	8 (≈ 24.5 µM)	16 (≈ 49 µM)	8 (≈ 24.5 µM)	8 (≈ 24.5 µM)	8 (≈ 24.5 µM)	8 (≈ 24.5 µM)
N=C(N)N/N=C/c1ccc(/C=C/C(=O)c2ccc(F)cc2)cc1	8 (≈ 25.8 µM)	8 (≈ 25.8 µM)	4 (≈ 12.9 µM)	8 (≈ 25.8 µM)	4 (≈ 12.9 µM)	90.7	8 (≈ 25.8 µM)	4 (≈ 12.9 µM)	8 (≈ 25.8 µM)	8 (≈ 25.8 µM)	4 (≈ 12.9 µM)	4 (≈ 12.9 µM)	8 (≈ 25.8 µM)	4 (≈ 12.9 µM)
O=C(/C=C/c1ccc(/C=N/NC(=O)c2cccc(Cl)c2)cc1)c1cccc(Cl)c1	32 (≈ 75.6 µM)	32 (≈ 75.6 µM)	> 64	32 (≈ 75.6 µM)	32 (≈ 75.6 µM)		32 (≈ 75.6 µM)	32 (≈ 75.6 µM)	> 64	32 (≈ 75.6 µM)	> 64	> 64	32 (≈ 75.6 µM)	32 (≈ 75.6 µM)
Cc1ccc(C(=O)/C=C/c2ccc(/C=N/NC(=N)N)cc2)cc1	4 (≈ 13.1 µM)	4 (≈ 13.1 µM)	2 (≈ 6.53 µM)	4 (≈ 13.1 µM)	2 (≈ 6.53 µM)	77.7	4 (≈ 13.1 µM)	4 (≈ 13.1 µM)	8 (≈ 26.1 µM)	8 (≈ 26.1 µM)	4 (≈ 13.1 µM)	2 (≈ 6.53 µM)	8 (≈ 26.1 µM)	4 (≈ 13.1 µM)
OC(Cn1cncn1)(Cn1cncn1)c1ccc(F)cc1F [FLUCONAZOLE]			1 (≈ 3.27 µM)											
COc1c(N2CCNC(C)C2)c(F)cc2c(=O)c(C(=O)O)cn(C3CC3)c12 (stereo not drawn) [GATIFLOXACIN]	4 (≈ 10.7 µM)	4 (≈ 10.7 µM)		8 (≈ 21.3 µM)	2 (≈ 5.33 µM)		2 (≈ 5.33 µM)	0.25 (≈ 0.666 µM)	0.5 (≈ 1.33 µM)	16 (≈ 42.6 µM)	2 (≈ 5.33 µM)	1 (≈ 2.66 µM)	2 (≈ 5.33 µM)	2 (≈ 5.33 µM)
CC(C)Cc1ccc(C(C)C(=O)O)cc1 (stereo not drawn) [IBUPROFEN]						87.4								
COc1c(N2C[C@@H]3CCCN[C@@H]3C2)c(F)cc2c(=O)c(C(=O)O)cn(C3CC3)c12 [MOXIFLOXACIN]	2 (≈ 4.98 µM)							0.25 (≈ 0.623 µM)	0.25 (≈ 0.623 µM)	128 (≈ 319 µM)	1 (≈ 2.49 µM)			
CCn1cc(C(=O)O)c(=O)c2cc(F)c(N3CCNCC3)cc21 [NORFLOXACIN]		> 64		> 64	4 (≈ 12.5 µM)								8 (≈ 25.1 µM)	
Cc1onc(-c2ccccc2)c1C(=O)N[C@@H]1C(=O)N2[C@@H]1SC(C)(C)[C@@H]2C(=O)O [OXACILLIN]		1 (≈ 2.49 µM)		1 (≈ 2.49 µM)	> 64								> 64	
